Target: Bromodomain testis-specific protein (Homo sapiens, UniProt Q58F21)
Test: Binding affinity to human partial length BRDT bromodomain 1 (N21 to E137 residues) expressed in bacterial expression system by BROMOscan assay

Cc1sc2c(c1C)C(c1ccc(Cl)cc1)=N[C@@H](CC(=O)NCCCCNC(=O)COc1cccc3c1C(=O)N(C1CCC(=O)NC1=O)C3=O)c1nnc(C)n1-2 (stereo partly specified)
Kd: 6 to 19 nM
